For 36 compounds, EC50 results are on record in patent publication US8772323B2, “Benzoxazole- and tetrahydrobenzoxazole-substituted pyridazinones as GPR119 agonists” (Boehringer Ingelheim International GmbH, priority 2010, dated 2014).

The assay addresses human GPR119 (Homo sapiens (Human), UniProt Q8TDV5). As to the kind of experiment: AlphaScreen cAMP assay in Min-6/hGPR119 cells (GPR119 activation, intracellular cAMP). The class given is cell-based. As to conditions: MIN6 cells stably transfected with human GPR119; 45 minutes' incubation at RT; AlphaScreen cAMP Assay Kit. An outline of the steps: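 cAMP quantified by AlphaScreen after 45 min room-temperature compound exposure in HEPES/bicarbonate buffer, pH 7.4, containing 0.5 mM IBMX, 0.1% BSA and 1% DMSO final. Cells were Min-6 stably transfected with human GPR119, seeded 24 h beforehand.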
Background: Bead proximity is the source of the signal in Alpha formats.

Where a name gives a salt, the structure may show the parent alone. A value given as a limit tells only on which side of the number the result lay.

human GPR119, sequence (Q8TDV5 whole entry): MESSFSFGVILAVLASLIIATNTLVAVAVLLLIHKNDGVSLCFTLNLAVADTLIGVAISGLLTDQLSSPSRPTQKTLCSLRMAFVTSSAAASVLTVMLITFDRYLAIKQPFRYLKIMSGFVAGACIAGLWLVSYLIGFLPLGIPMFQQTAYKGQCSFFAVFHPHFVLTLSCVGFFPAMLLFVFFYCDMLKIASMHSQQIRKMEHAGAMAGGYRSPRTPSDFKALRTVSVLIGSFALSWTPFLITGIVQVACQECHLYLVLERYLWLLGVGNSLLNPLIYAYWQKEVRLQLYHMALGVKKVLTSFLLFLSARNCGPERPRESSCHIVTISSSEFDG

As usually defined, the EC50 is the concentration giving half of the maximal effect. A higher EC50 goes with a need for much substance. `CCC1CC(=O)NN=C1c1ccc2nc(-c3ccc(OCc4nc(C(C)C)no4)cc3)oc2c1` (stereo not drawn) [Example 50, 5-ethyl-6-{2-[4-(3-isopropyl-[1,2,4]oxadiazol-5-ylmethoxy)-phenyl]-benzoxazol-6-yl}-4,5-dihydro-2H-pyridazin-3-one]: it took 223 nM to reach a half-maximal effect (EC50).

On to `CCC1CC(=O)NN=C1c1ccc2nc(-c3ccc(OCc4cccs4)cc3)oc2c1` (stereo not drawn) [Example 51, 5-ethyl-6-{2-[4-(thiophen-2-ylmethoxy)-phenyl]-benzoxazol-6-yl}-4,5-dihydro-2H-pyridazin-3-one], for which the EC50 came out at 158 nM.

`CCCOc1ccc(-c2nc3ccc(C4=NNC(=O)CC4CC)cc3o2)cc1` (stereo not drawn) [Example 52, 5-ethyl-6-[2-(4-propoxy-phenyl)-benzoxazol-6-yl]-4,5-dihydro-2H-pyridazin-3-one] returned an EC50 of 189 nM.

The compound `CCC1CC(=O)NN=C1c1ccc2nc(-c3ccc(OCCN4CCCCCC4)cc3)oc2c1` (stereo not drawn) [Example 53, 6-{2-[4-(2-azepan-1-yl-ethoxy)-phenyl]-benzoxazol-6-yl}-5-ethyl-4,5-dihydro-2H-pyridazin-3-one] showed an EC50 of 205 nM.

The compound `CCC1CC(=O)NN=C1c1ccc2nc(-c3ccc(OCC4CCCCC4)cc3)oc2c1` (stereo not drawn) [Example 54, 6-[2-(4-cyclohexylmethoxy-phenyl)-benzoxazol-6-yl]-5-ethyl-4,5-dihydro-2H-pyridazin-3-one] gave an EC50 of 145 nM.

Turning to `CCC1CC(=O)NN=C1c1ccc2nc(-c3ccc(OCCN(C)C)cc3)oc2c1` (stereo not drawn) [Example 55, 6-{2-[4-(2-dimethylamino-ethoxy)-phenyl]-benzoxazol-6-yl}-5-ethyl-4,5-dihydro-2H-pyridazin-3-one], the EC50 was determined as 486 nM.

`CCC1CC(=O)NN=C1c1ccc2nc(-c3ccc(OCCC4CCCCC4)cc3)oc2c1` (stereo not drawn) [Example 56, 6-{2-[4-(2-cyclohexyl-ethoxy)-phenyl]-benzoxazol-6-yl}-5-ethyl-4,5-dihydro-2H-pyridazin-3-one] displayed an EC50 of 170 nM.

For `CCC1CC(=O)NN=C1c1ccc2nc(-c3ccc(OCCN(C(C)C)C(C)C)cc3)oc2c1` (stereo not drawn) [Example 57, 6-{2-[4-(2-diisopropylamino-ethoxy)-phenyl]-benzoxazol-6-yl}-5-ethyl-4,5-dihydro-2H-pyridazin-3-one], the EC50 worked out at 37 nM.

Compound `CCC1CC(=O)NN=C1c1ccc2nc(-c3ccc(OCCN4C(C)(C)CCCC4(C)C)cc3)oc2c1` (stereo not drawn) [Example 58, 5-ethyl-6-(2-{4-[2-(2,2,6,6-tetramethyl-piperidin-1-yl)-ethoxy]-phenyl}-benzoxazol-6-yl)-4,5-dihydro-2H-pyridazin-3-one] had an EC50 of 76 nM.

Compound `CCC1CC(=O)NN=C1c1ccc2nc(-c3ccc(OCc4cncnc4)cc3)oc2c1` (stereo not drawn) [Example 59, 5-ethyl-6-{2-[4-(pyrimidin-5-ylmethoxy)-phenyl]-benzoxazol-6-yl}-4,5-dihydro-2H-pyridazin-3-one] displayed a concentration for a half-maximal effect (EC50) of 1590 nM.

Compound `CCC1CC(=O)NN=C1c1ccc2nc(-c3ccc(OCc4cccnc4)cc3)oc2c1` (stereo not drawn) [Example 60, 5-ethyl-6-{2-[4-(pyridin-3-ylmethoxy)-phenyl]-benzoxazol-6-yl}-4,5-dihydro-2H-pyridazin-3-one] had a concentration for a half-maximal effect (EC50) of 639 nM.

`CCC1CC(=O)NN=C1c1ccc2nc(-c3ccc(OCC(=O)N4CCCCC4)cc3)oc2c1` (stereo not drawn) [Example 61, 5-ethyl-6-{2-[4-(2-oxo-2-piperidin-1-yl-ethoxy)-phenyl]-benzoxazol-6-yl}-4,5-dihydro-2H-pyridazin-3-one] displayed an EC50 of 342 nM.

Turning to `CCC1CC(=O)NN=C1c1ccc2nc(-c3ccc(OCCCN(C)C)cc3)oc2c1` (stereo not drawn) [Example 62, 6-{2-[4-(3-dimethylamino-propoxy)-phenyl]-benzoxazol-6-yl}-5-ethyl-4,5-dihydro-2H-pyridazin-3-one], the EC50 amounted to 552 nM.

The compound `CCC1CC(=O)NN=C1c1ccc2nc(-c3ccc(OCc4cnco4)cc3)oc2c1` (stereo not drawn) [Example 63, 5-ethyl-6-{2-[4-(oxazol-5-ylmethoxy)-phenyl]-benzoxazol-6-yl}-4,5-dihydro-2H-pyridazin-3-one] had an EC50 of 324 nM.

Take `CCC1CC(=O)NN=C1c1ccc2nc(-c3ccc(OCCN4CCOCC4)cc3)oc2c1` (stereo not drawn) [Example 64, 5-ethyl-6-{2-[4-(2-morpholin-4-yl-ethoxy)-phenyl]-benzoxazol-6-yl}-4,5-dihydro-2H-pyridazin-3-one]: the EC50 came out at 237 nM.

For the compound `CCC1CC(=O)NN=C1c1ccc2nc(-c3cccc(OCc4ccccn4)c3)oc2c1` (stereo not drawn) [Example 65, 5-ethyl-6-{2-[3-(pyridin-2-ylmethoxy)-phenyl]-benzoxazol-6-yl}-4,5-dihydro-2H-pyridazin-3-one], the concentration for a half-maximal effect (EC50) was 426 nM.

Take `CCC1CC(=O)NN=C1c1ccc2nc(-c3ccc(OCC(=O)OC(C)(C)C)cc3)oc2c1` (stereo not drawn) [Example 66, tert-butyl {4-[6-(4-ethyl-6-oxo-1,4,5,6-tetrahydro-pyridazin-3-yl)-benzoxazol-2-yl]-phenoxy}-acetate]: the EC50 stood at 112 nM.

In turn, `CCC1CC(=O)NN=C1c1ccc2nc(-c3ccc(OCC4CCN(C(=O)OC(C)(C)C)CC4)cc3)oc2c1` (stereo not drawn) [Example 67, tert-butyl 4-{4-[6-(4-ethyl-6-oxo-1,4,5,6-tetrahydro-pyridazin-3-yl)-benzoxazol-2-yl]-phenoxymethyl}-piperidine-1-carboxylate] showed an EC50 of 51 nM.

`CCC1CC(=O)NN=C1c1ccc2nc(-c3ccc(OC4CCN(C(=O)OC(C)(C)C)CC4)cc3)oc2c1` (stereo not drawn) [Example 68, tert-butyl 4-{4-[6-(4-ethyl-6-oxo-1,4,5,6-tetrahydro-pyridazin-3-yl)-benzoxazol-2-yl]-phenoxy}-piperidin-1-carboxylate] registered an EC50 of 60 nM.

Compound `CC1CC(=O)NN=C1c1ccc2nc(-c3cccc(OCC4CCN(C(=O)OC(C)(C)C)CC4)c3)oc2c1` (stereo not drawn) [Example 69, tert-butyl 4-{3-[6-(4-methyl-6-oxo-1,4,5,6-tetrahydro-pyridazin-3-yl)-benzoxazol-2-yl]-phenoxymethyl}-piperidin-1-carboxylate] gave an EC50 of 143 nM.

On to `CCC1CC(=O)NN=C1c1ccc2nc(-c3ccc(OCC(=O)O)cc3)oc2c1` (stereo not drawn) [Example 70, 4-[6-(4-ethyl-6-oxo-1,4,5,6-tetrahydro-pyridazin-3-yl)-benzoxazol-2-yl]-phenoxy-acetic acid], for which the EC50 came to 3910 nM.

For `CCC1CC(=O)NN=C1c1ccc2nc(-c3ccc(OCC4CCNCC4)cc3)oc2c1` (stereo not drawn) [Example 71, 4-{4-[6-(4-ethyl-6-oxo-1,4,5,6-tetrahydro-pyridazin-3-yl)-benzoxazol-2-yl]-phenoxymethyl}-piperidine as hydrochloride], the EC50 is more than 10000 nM.

`CCC1CC(=O)NN=C1c1ccc2nc(-c3ccc(OC4CCNCC4)cc3)oc2c1` (stereo not drawn) [Example 72, 5-ethyl-6-{2-[4-(piperidin-4-yloxy)-phenyl]-benzoxazol-6-yl}-4,5-dihydro-2H-pyridazin-3-one hydrochloride] came in with an EC50 of 1810 nM.

Regarding `CC1CC(=O)NN=C1c1ccc2nc(-c3cccc(OCC4CCNCC4)c3)oc2c1` (stereo not drawn) [Example 73, 5-methyl-6-{2-[3-(piperidin-4-ylmethoxy)-phenyl]-benzoxazol-6-yl}-4,5-dihydro-2H-pyridazin-3-one hydrochloride], the EC50 was 6770 nM.

In the case of `CCC1CC(=O)NN=C1c1ccc2nc(-c3ccc(OCC4CCN(S(C)(=O)=O)CC4)cc3)oc2c1` (stereo not drawn) [Example 74, 5-ethyl-6-{2-[4-(1-methanesulphonyl-piperidin-4-ylmethoxy)-phenyl]-benzoxazol-6-yl}-4,5-dihydro-2H-pyridazin-3-one], the response was half-maximal at 240 nM (EC50).

For `CCC1CC(=O)NN=C1c1ccc2nc(-c3ccc(/C=C/c4ccccc4)cc3)oc2c1` (stereo not drawn) [Example 75, 5-ethyl-6-{2-[4-styryl-phenyl]-benzoxazol-6-yl}-4,5-dihydro-2H-pyridazin-3-one], the midpoint of the response, the EC50, lay at 384 nM.

`CCC1CC(=O)NN=C1c1ccc2nc(-c3ccc(CCc4ccccc4)cc3)oc2c1` (stereo not drawn) [Example 76, 5-ethyl-6-[2-(4-phenethyl-phenyl)-benzoxazol-6-yl]-4,5-dihydro-2H-pyridazin-3-one]: the EC50 is 245 nM.

Compound `CCC1SC(=O)NN=C1c1ccc2nc(-c3ccccc3)oc2c1` (stereo not drawn) [Example 77, 6-ethyl-5-(2-phenyl-benzoxazol-6-yl)-3,6-dihydro-[1,3,4]thiadiazin-2-one] showed an EC50 of 141 nM.

`CCC1OC(=O)NN=C1c1ccc2nc(-c3ccccc3)oc2c1` (stereo not drawn) [Example 78, 6-ethyl-5-(2-phenyl-benzoxazol-6-yl)-3,6-dihydro-[1,3,4]oxadiazin-2-one] displayed an EC50 of 61 nM.

`CC1OC(=O)NN=C1c1ccc2nc(-c3ccccc3)oc2c1` (stereo not drawn) [Example 81, 6-methyl-5-(2-phenyl-1,3-benzoxazol-6-yl)-3,6-dihydro-2H-1,3,4-oxadiazin-2-one]: it took 31 nM to reach a half-maximal effect (EC50).

Compound `CC1CC(=O)NN=C1c1ccc2nc(-c3ccccc3)oc2c1` (stereo not drawn) [Example 82, 5-methyl-6-(2-phenyl-benzoxazol-6-yl)-4,5-dihydro-2H-pyridazin-3-one] returned an EC50 of 189 nM.

`COc1ccc(-c2nc3ccc(C4=NNC(=O)CC4C)cc3o2)cc1` (stereo not drawn) [Example 83, 6-[2-(4-methoxy-phenyl)-benzoxazol-6-yl]-5-methyl-4,5-dihydro-2H-pyridazin-3-one] registered an EC50 of 94 nM.

As for `CC1CC(=O)NN=C1c1ccc2nc(-c3ccc(Cl)cc3)oc2c1` (stereo not drawn) [Example 84, 6-[2-(4-chloro-phenyl)-benzoxazol-6-yl]-5-methyl-4,5-dihydro-2H-pyridazin-3-one], the EC50 was found to be 132 nM.

In turn, `COc1cccc(-c2nc3ccc(C4=NNC(=O)CC4C)cc3o2)c1` (stereo not drawn) [Example 85, 6-[2-(3-methoxy-phenyl)-benzoxazol-6-yl]-5-methyl-4,5-dihydro-2H-pyridazin-3-one] gave an EC50 of 334 nM.

Regarding `COc1ccccc1-c1nc2ccc(C3=NNC(=O)CC3C)cc2o1` (stereo not drawn) [Example 86, 6-[2-(2-methoxy-phenyl)-benzoxazol-6-yl]-5-methyl-4,5-dihydro-2H-pyridazin-3-one], the midpoint of the response, the EC50, lay at 1150 nM.

`Cc1ccc(-c2nc3ccc(C4=NNC(=O)CC4C)cc3o2)s1` (stereo not drawn) [Example 87, 5-methyl-6-[2-(5-methyl-thiophen-2-yl)-benzoxazol-6-yl]-4,5-dihydro-2H-pyridazin-3-one] registered an EC50 of 100 nM.
